Data published in patent publication US8334308B2, “Renin inhibitors” (Merck Sharp & Dohme Corp., priority 2007, dated 2012).

Experiments:
human recombinant renin = target: T1, human recombinant renin (Homo sapiens, UniProt P00797); assay: Inhibition of human recombinant renin (enzymatic in vitro assay, Ang I EIA); type: biochemical; conditions: human recombinant renin 40 pM, buffer, 37° C. 3 h
T1 sequence (P00797 67-406): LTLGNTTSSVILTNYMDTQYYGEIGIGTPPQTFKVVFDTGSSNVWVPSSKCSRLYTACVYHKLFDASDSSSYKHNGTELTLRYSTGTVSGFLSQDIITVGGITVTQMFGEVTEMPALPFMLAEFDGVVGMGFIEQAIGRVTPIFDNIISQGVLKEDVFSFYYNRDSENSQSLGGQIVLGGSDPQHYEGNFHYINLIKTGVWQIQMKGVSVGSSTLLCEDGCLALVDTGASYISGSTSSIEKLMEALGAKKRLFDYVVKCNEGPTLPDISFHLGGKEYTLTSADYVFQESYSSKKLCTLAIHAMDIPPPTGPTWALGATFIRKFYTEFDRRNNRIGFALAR
Description: Inhibition of Human Recombinant Renin
(§1) The enzymatic in vitro assay was performed in 384-well polypropylene plates (Nunc). The assay buffer consisted of PBS (Gibco BRL) including 1 mM EDTA and 0.1% BSA. The reaction mixture were composed of 47.5 μL per well of an enzyme mix and 2.5 μL of renin inhibitors in DMSO. The enzyme mix was premixed at 4° C. and consists of the following components: […]
human recombinant renin (40 pM) synthetic human angiotensin(1-14) (0.5 μM) hydroxyquinoline sulfate (1 mM)
The mixtures were then incubated at 37° C. for 3 h. The enzyme reaction was stopped by placing the reaction plate on wet ice.
(§2) To determine the enzymatic activity and its inhibition, the accumulated Ang I was detected by an enzyme immunoassay (EIA) in 384-well plates (Nunc). 5 μL of the reaction mixture or standards were transferred to immuno plates which were previously coated with a covalent complex of Ang I and bovine serum albumin (Ang I-BSA). 75 μL of Ang I-antibodies in assay buffer above including 0.01% Tween 20 were added and the plates were incubated at 4° C. overnight.
An alternative protocol could be used by stopping the enzymatic reaction with 0.02N final concentration of HCl. 5 μL of the reaction mixture or standards were transferred to immuno plates and 75 μL of Ang I-antibodies in assay buffer above including 0.01% Tween 20 were added and the plates were incubate at RT for 4 h.

renin in human plasma = target: T2, renin in human plasma (Homo sapiens, UniProt P00797); assay: Inhibition of renin in human plasma (enzymatic in vitro assay, Ang I EIA); type: biochemical; conditions: human plasma from 10 normal donors, 37° C. 2 h
T2 construct: host or cells: recombinant renin of unstated origin added to human plasma from 10 normal donors
T2 sequence (P00797 67-406): T1 sequence (P00797 67-406)
Description: Inhibition of Renin in Human Plasma
as §1, with “was” for “were”, “80 μL,” for “47.5 μL”, “human plasma, enzyme, Ang I-antibodiesmix” for “an enzyme mix”, “5” for “2.5”, “human plasma” for “enzyme”, “of” for “of the following components:”
human plasma from 10 normal donors human recombinant renin (3 μM)
The mixtures were then incubated at 37° C. for 2 h.
as §2, with “10” for “5”, “70” for “75”, “μL” for “μL of Ang I-antibodies in”, “buffer” for “buffer above including 0.01% Tween 20”

SMILES | IC50 (human recombinant renin) [nM] | IC50 (renin in human plasma) [nM]
Cc1cc(Cl)c(OCCOc2ccc(CC(CN)c3ccc(-c4ccccc4CCC(=O)N(C)C)cc3C)cc2)c(Cl)c1 (stereo not drawn) [Example 24, 3-[4′-(2-amino-1-{4-[2-(2,6-dichloro-4-methylphenoxy)ethoxy]benzyl}ethyl)-3′-methylbiphenyl-2-yl]-N—N-dimethylpropanamide] | 30.8 | > 1110
COCCOc1ccccc1-c1ccc(C(CN)Cc2ccc(OCCOc3c(Cl)cc(C)cc3Cl)cc2)c(C)c1 (stereo not drawn) [Example 4, 3-{4-[2-(2,6-dichloro-4-methylphenoxy)ethoxy]phenyl}-2-[2′-(2-methoxyethoxy)-3-methylbiphenyl-4-yl]propan-1-amine] | 7.4 | 1500
COCCCc1cccc(C)c1-c1ccc(C(CN)Cc2ccc(OCCOc3c(Cl)cc(C)cc3Cl)cc2)c(C)c1 (stereo not drawn) [Example 12, 3-{4-[2-(2,6-dichloro-4-methylphenoxy)ethoxy]phenyl}-2-[2′-(3-methoxypropyl)-3,6′-dimethylbiphenyl-4-yl]propan-1-amine] | 0.2 | 643
COCCCc1ccccc1-c1ccc(C(CN)Cc2cc(F)cc(F)c2)c(C)c1 (stereo not drawn) [Example 32, 3-(3,5-difluorophenyl)-2-[2′-(3-methoxypropyl)-3-methylbiphenyl-4-yl]propan-1-amine] | 285 | > 10000
COc1cc(-c2ccccc2Cl)ccc1C(CN)Cc1ccc(OCCOc2c(Cl)cc(C)cc2Cl)cc1 (stereo not drawn) [Example 8, 2-(2′-chloro-3-methoxybiphenyl-4-yl)-3-{4-[2-(2,6-dichloro-4-methylphenoxy)ethoxy]phenyl}propan-1-amine] | 47.6 | 3620
COCCCc1ncccc1-c1ccc(C(CN)Cc2ccc(OCCOc3c(Cl)cc(C)cc3Cl)cc2)c(C)c1 (stereo not drawn) [Example 16, 3-{4-[2-(2,6-dichloro-4-methylphenoxy)ethoxy]phenyl}-2-{4-[2-(3-methoxypropyl)pyridin-3-yl]-2-methylphenyl}propan-1-amine] | 1.1 | 94.6
Cc1cc(Cl)c(OCCOc2ccc(CC(CN)c3ccc(-c4ccccc4Cl)cc3Cl)cc2)c(Cl)c1 (stereo not drawn) [Example 10, 2-(2′,3-dichlorobiphenyl-4-yl)-3-{4-[2-(2,6-dichloro-4-methylphenoxy)ethoxy]phenyl}propan-1-amine] | 0.5 | 764
COCCCc1ccccc1-c1ccc(C(CN)Cc2ccc(OCCOc3c(Cl)cc(C)cc3Cl)cc2)c(C(F)(F)F)c1 (stereo not drawn) [Example 13, 3-{4-[2-(2,6-dichloro-4-methylphenoxy)ethoxy]phenyl}-2-[2′-(3-methoxypropyl)-3-(trifluoromethyl)biphenyl-4-yl]propan-1-amine] | 0.9 | 156
CC(=O)NCCc1ccccc1-c1ccc(C(CN)Cc2ccc(OCCOc3c(Cl)cc(C)cc3Cl)cc2)c(C)c1 (stereo not drawn) [Example 30, 2-{2′-[2-(acetylamino)ethyl]-3-methylbiphenyl-4-yl}-3-{4-[2-(2,6-dichloro-4-methylphenoxy)ethoxy]phenyl}propan-1-aminium chloride] | – | 9.6
COCCc1ccccc1-c1ccc(C(CN)Cc2ccc(OCCOc3c(Cl)cc(C)cc3Cl)cc2)c(C)c1 (stereo not drawn) [Example 2, 3-{4-[2-(2,6-dichloro-4-methylphenoxy)ethoxy]phenyl}-2-[2′-(2-methoxyethyl)-3-methylbiphenyl-4-yl]propan-1-amine] | 19.7 | 1920
COCCCc1ccccc1-c1cc(C(F)(F)F)c(C(CN)Cc2ccc(OCCOc3c(Cl)cc(C)cc3Cl)cc2)cn1 (stereo not drawn) [Example 11, 3-{4-[2-(2,6-dichloro-4-methylphenoxy)ethoxy]phenyl}-2-[6-[2-(3-methoxypropyl)phenyl]-4-(trifluoromethyl)pyridin-3-yl]propan-1-amine] | 0.3 | 21
COCCCc1ccccc1-c1ccc(C(CN)Cc2ccc(OCCOc3c(Cl)cc(C)cc3Cl)cc2)c(C)c1 (stereo not drawn) [Example 3, 3-{4-[2-(2,6-dichloro-4-methylphenoxy)ethoxy]phenyl}-2-[2′-(3-methoxypropyl)-3-methylbiphenyl-4-yl]propan-1-amine] | 0.4 | 116
Cc1cc(Cl)c(OCCOc2ccc(CC(CN)c3ccc(-c4ccccc4Cl)cc3)cc2)c(Cl)c1 (stereo not drawn) [Example 6, 2-(2′-chlorobiphenyl-4-yl)-3-{4-[2-(2,6-dichloro-4-methylphenoxy)ethoxy]phenyl}propan-1-amine] | 44.4 | –
Cc1cc(Cl)c(OCCOc2ccc(CC(CN)c3ccc(-c4ccccc4Cl)cc3C)cc2)c(Cl)c1 (stereo not drawn) [Example 1, 2-(2′-Chloro-3-methyl-biphenyl-4-yl)-3-{4-[2-(2,6-dichloro-4-methyl-phenoxy)-ethoxy]-phenyl}-propylamine] | 6 | 796
Cc1cc(Cl)c(OCCOc2ccc(CC(CN)c3ccc(-c4c(Cl)cccc4Cl)cc3C)cc2)c(Cl)c1 (stereo not drawn) [Example 39] | 16.3 | 2320
Cc1cc(Cl)c(OCCOc2ccc(CC(CN)c3ccc(-c4ccccc4Cl)cc3F)cc2)c(Cl)c1 (stereo not drawn) [Example 7, 2-(2′-chloro-3-fluorobiphenyl-4-yl)-3-{4-[2-(2,6-dichloro-4-methylphenoxy)ethoxy]phenyl}propan-1-amine] | 7 | 1150
COCCCc1c(-c2ccc(C(CN)Cc3ccc(OCCOc4c(Cl)cc(C)cc4Cl)cc3)c(C)c2)ccc[n+]1[O-] (stereo not drawn) [Example 21, 3-{-4-[2-(2,6-dichloro-4-methylphenoxy)ethoxy]phenyl}-2-{4-[2-(3-methoxypropyl)-1-oxidopyridin-3-yl]-2-methylphenyl}propan-1-amine] | 4.3 | 103
COCCCOc1ccccc1-c1ccc(C(CN)Cc2ccc(OCCOc3c(Cl)cc(C)cc3Cl)cc2)c(C)c1 (stereo not drawn) [Example 5, 3-{4-[2-(2,6-dichloro-4-methylphenoxy)ethoxy]phenyl}-2-[2′-(3-methoxypropoxy)-3-methylbiphenyl-4-yl]propan-1-amine] | 1.7 | 1160
Cc1cc(Cl)c(OCCOc2ccc(CC(CN)c3ccc(-c4ccccc4CCC#N)cc3C)cc2)c(Cl)c1 (stereo not drawn) [Example 14, 3-[4′-(2-amino-1-{4-[2-(2,6-dichloro-4-methylphenoxy)ethoxy]benzyl}ethyl)-3′-methylbiphenyl-2-yl]propanenitrile] | 10.6 | 544
